Test results: patent US10189796B2, “[4-(1,3,3-trimethyl-2-oxo-3,4-dihydro-1H-quinoxalin-7-yl)phenoxy]ethyloxy compound or salt thereof” (SANTEN PHARMACEUTICAL CO., LTD., priority 2015, dated 2019)

Key:
Recombinant human GR = Recombinant human GR (Homo sapiens (Human), UniProt P04150); assay: GR competitive binding assay by fluorescence polarization; details: 20 μM test compound solution, 10 μL/well; 2 hours; DEX positive control; read-out: GR binding rate (%)
In short: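 Fluorescence polarization competition between test compound and Fluormone GS1 fluorescent glucocorticoid ligand for recombinant human GR. Buffer 10 mM potassium phosphate pH 7.4, 20 mM Na2MoO4, 0.1 mM EDTA, 5 mM DTT, 2% DMSO. 2 h dark incubation at room temperature; binding ratio (%) scaled between buffer-only and DEX controls.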

[1] = test system: IL-4 production in normal human CD4+T cell; assay: IL-4 production inhibitory action evaluation test (anti-CD3/CD28 antibody stimulation, ELISA); assay type: cell-based; details: anti-CD3/CD28, 24 hours, read-out: IL-4 production inhibitory ratio (% of 1 μM)
Protocol: In order to evaluate an action of the present compound as a GR agonist, IL-2 and IL-4 production inhibitory actions in a normal human CD4^+T cell after stimulation by an anti-CD3/CD28 antibody were investigated. For the measurement of the IL-2 and IL-4 production amounts, the ELISA method (manufactured by R&D Systems, Cat No. D2050, HS400) was used, and a procedure was carried out according to the protocol attached thereto. Hereinafter, the specific method will be described.
Dynabeads (Registered Trademark) Human T-Activator CD3/CD28 (4×10^7 beads/mL) (Dynabeads) was used, and prepared according to the protocol attached thereto.
After the test compound was dissolved in dimethylsulfoxide, the solution was diluted with an RPMI medium to prepare 400 μM of a test compound solution. The solution was diluted with a 4% dimethylsulfoxide-containing RPMI medium to prepare 40 μM of a test compound solution.
Used cells: normal peripheral blood human CD4^+T cell (human CD4^+T cell) (Lonza)
• 1) Frozen human CD4^+T cells were thawed in a warm water bath at 37° C., and added to an RPMI medium (RPMI 1640 containing 10% FBS, 100 U/mL of Penicillin, and […] of Streptomycin). • 2) The above suspension was recovered and centrifuged at 900 rpm for 10 minutes to give a cell sediment. • 3) The cell sediment was suspended in an RPMI medium and the operation of 2) was carried out. • 4) The cell sediment was adjusted to 4×10^5 cells/mL with an RPMI medium. • 5) The above suspension was cultured in a CO2 incubator (temperature: 37° C., CO2 concentration: 5%) for 1 hour or longer. (Test Method and Measurement Method) • 1) The cultured human CD4^+T cells were recovered and the cells were seeded in 96-well flat bottom culture plates at each 8.0×10^4 cells/0.2 mL/well. • 2) The test compound solution was added with each 5 μL/well. • 3) The prepared Dynabeads were added with each 2 μL/well. • 4) The sample in which 4% dimethylsulfoxide-containing RPMI medium was added with each 5 μL/well in place of each test compound solution, and the RPMI medium was added with each 2 μL/well in place of the Dynabeads was made a negative control. • 5) The sample in which 4% dimethylsulfoxide-containing RPMI medium was added with each 5 μL/well in place of each test compound solution was made a positive control. • 6) After completion of 24 hours cultivation, the supernatant was recovered and the amounts of IL-2 and IL-4 released in the supernatant was measured by using an ELISA Kit. • 7) The IL-2 and IL-4 production inhibitory ratios were calculated according to the following calculation formula. (Calculation of IL-2 and IL-4 Production Inhibitory Ratios)
The IL-2 and IL-4 production inhibitory ratios (%) were calculated by the following formula, respectively. IL-2 or IL-4 production inhibitory ratio (%)=100×{1−(IL-2 or IL-4 production amounts of each test compound solution−average value of IL-2 or IL-4 production amount of negative control group)/(average value of IL-2 or IL-4 production amount of positive control group−average value of IL-2 or IL-4 production amount of negative control group)}(%) (Test Result and Consideration)

Chain of Recombinant human GR (P04150 whole entry): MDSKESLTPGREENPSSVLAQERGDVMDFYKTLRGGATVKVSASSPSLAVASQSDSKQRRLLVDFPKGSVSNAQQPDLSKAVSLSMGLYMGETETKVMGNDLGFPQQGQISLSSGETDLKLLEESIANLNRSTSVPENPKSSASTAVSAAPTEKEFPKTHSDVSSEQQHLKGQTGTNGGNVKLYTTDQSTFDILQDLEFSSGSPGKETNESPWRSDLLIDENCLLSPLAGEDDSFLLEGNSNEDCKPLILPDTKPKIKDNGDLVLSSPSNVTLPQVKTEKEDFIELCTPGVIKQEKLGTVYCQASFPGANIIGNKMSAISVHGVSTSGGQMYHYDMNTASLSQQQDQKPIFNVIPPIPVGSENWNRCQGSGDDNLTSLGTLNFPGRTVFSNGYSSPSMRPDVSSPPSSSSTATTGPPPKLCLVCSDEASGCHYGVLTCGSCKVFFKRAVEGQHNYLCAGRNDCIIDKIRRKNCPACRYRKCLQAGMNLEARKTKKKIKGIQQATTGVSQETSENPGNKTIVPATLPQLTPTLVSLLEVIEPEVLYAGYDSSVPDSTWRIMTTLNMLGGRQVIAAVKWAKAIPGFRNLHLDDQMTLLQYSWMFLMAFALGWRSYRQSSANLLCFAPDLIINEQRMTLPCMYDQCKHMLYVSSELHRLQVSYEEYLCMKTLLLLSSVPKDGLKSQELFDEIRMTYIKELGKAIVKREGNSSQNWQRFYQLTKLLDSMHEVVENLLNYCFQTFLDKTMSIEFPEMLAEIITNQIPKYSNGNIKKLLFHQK

`COc1cc(OC[C@@H](O)CCO)ccc1-c1ccc2c(c1COc1cc(F)ccc1C)N(C)C(=O)C(C)(C)N2` [Compound 2-1, (S)-7-[4-(2,4-dihydroxybutyl)oxy-2-methoxyphenyl]-8-(5-fluoro-2-methyl-phenoxymethyl)-1,3,3-trimethyl-3,4-dihydro-1H-quinoxalin-2-one] was tested, and the inhibition at 10 µM (Recombinant human GR) was > 99% and the inhibition at 1 µM [1] was 83%.
For `COc1ccc(CO)cc1-c1ccc2c(c1COc1cc(F)ccc1C)N(C)C(=O)C(C)(C)N2` [Control compound B, 8-(5-fluoro-2-methylphenoxymethyl)-7-(5-hydroxymethyl-2-methoxyphenyl)-1,3,3-trimethyl-3,4-dihydro-1H-quinoxalin-2-one, reference compound], the inhibition at 10 µM (Recombinant human GR) was > 99% and the inhibition at 1 µM [1] was 51%.
In the case of `COc1cc(OC[C@@H](O)CC#N)ccc1-c1ccc2c(c1COc1cc(F)ccc1C)N(C)C(=O)C(C)(C)N2` [Compound 5-2, (S)-7-[4-(3-cyano-2-hydroxypropyl)oxy-2-methoxyphenyl]-8-(5-fluoro-2-methyl-phenoxymethyl)-1,3,3-trimethyl-3,4-dihydro-1H-quinoxalin-2-one], the inhibition at 10 µM (Recombinant human GR) is reported as > 99%.
`COCOc1ccc(-c2ccc3c(c2COc2cc(F)ccc2C)N(C)C(=O)C(C)(C)N3)c(OC)c1` [Control compound F, 8-(5-fluoro-2-methylphenoxymethyl)-7-(2-methoxy-4-methoxymethoxyphenyl)-1,3,3-trimethyl-3,4-dihydro-1H-quinoxalin-2-one, reference compound] gave an inhibition at 10 µM (Recombinant human GR) of 94% and an inhibition at 1 µM [1] of 29%.
`COc1cc(OC[C@H](C)OC(=O)CN(C)C)ccc1-c1ccc2c(c1COc1cc(F)ccc1C)N(C)C(=O)C(C)(C)N2` [Compound 11-1, (S)-7-[4-[2-(N,N-dimethylaminoacetoxy)propyl]oxy-2-methoxyphenyl]-8-(5-fluoro-2-methylphenoxymethyl)-1,3,3-trimethyl-3,4-dihydro-1H-quinoxalin-2-one] gave an inhibition at 10 µM (Recombinant human GR) of 99% and an inhibition at 1 µM [1] of 87%.
With `COc1ccc(O)cc1-c1ccc2c(c1COc1cc(F)ccc1C)N(C)C(=O)C(C)(C)N2` [Control compound C, 8-(5-fluoro-2-methylphenoxymethyl)-7-(5-hydroxy-2-methoxyphenyl)-1,3,3-trimethyl-3,4-dihydro-1H-quinoxalin-2-one] the inhibition at 10 µM (Recombinant human GR) was > 99% and the inhibition at 1 µM [1] was 56%.
Compound `CCCC(=O)Oc1ccc(-c2ccc3c(c2COc2cc(F)ccc2C)N(C)C(=O)C(C)(C)N3)c(OC)c1` [Control compound D, 7-(4-butyryloxy-2-methoxyphenyl)-8-(5-fluoro-2-methylphenoxymethyl)-1,3,3-trimethyl-3,4-dihydro-1H-quinoxalin-2-one, reference compound] has an inhibition at 10 µM (Recombinant human GR) of 98% and an inhibition at 1 µM [1] of 46%.
`COc1ccc(-c2ccc3c(c2COc2cc(F)ccc2C)N(C)C(=O)C(C)(C)N3)c(OC)c1` [Control compound E, 7-(2,4-dimethoxyphenyl)-8-(5-fluoro-2-methyl-phenoxymethyl)-1,3,3-trimethyl-3,4-dihydro-1H-quinoxalin-2-one, reference compound] was tested, and the inhibition at 10 µM (Recombinant human GR) was 98% and the inhibition at 1 µM [1] was 32%.
In the case of `COc1cc(OC[C@H](C)O)ccc1-c1ccc2c(c1COc1cc(F)ccc1C)N(C)C(=O)C(C)(C)N2` [Compound 1-1, (S)-8-(5-fluoro-2-methylphenoxymethyl)-7-[4-(2-hydroxypropyl)oxy-2-methoxy-phenyl]-1,3,3-trimethyl-3,4-dihydro-1H-quinoxalin-2-one], the inhibition at 10 µM (Recombinant human GR) is reported as > 99% and the inhibition at 1 µM [1] is reported as 91%.
